Laboratory results: patent publication US8927717B1, “Thiochromeno[2,3-c]quinolin-12-one derivatives, preparation method and application thereof” (National Defense Medical Center, priority 2014, dated 2015)

Columns and labels:
SF-268 = assay type: cell-based
HOP-62 = assay type: cell-based
OVCAR-4 = assay type: cell-based
HCT-116 = assay type: cell-based
OVCAR-3 = assay type: cell-based; settings: Ovarian cancer; 10^−5 molar; 48 hours; SRB
KM12 = assay: cells; assay type: cell-based
NCI-H226 = assay type: cell-based
NCI/ADR-RES = assay type: cell-based
IGROV1 = assay type: cell-based
MDA-MB-231/ATCC = assay type: cell-based
SK-OV-3 = assay type: cell-based
TOP I (Topoisomerase I) [1] = target: T1, TOP I (Topoisomerase I) (Homo sapiens, UniProt P11387); assay: TOP I mediated supercoiled DNA relaxation assay; assay type: biochemical; settings: primary assay at 25 and/or 50 μM
T1 construct: purchased TopoGEN TG2005H
T1 sequence (P11387 1-765): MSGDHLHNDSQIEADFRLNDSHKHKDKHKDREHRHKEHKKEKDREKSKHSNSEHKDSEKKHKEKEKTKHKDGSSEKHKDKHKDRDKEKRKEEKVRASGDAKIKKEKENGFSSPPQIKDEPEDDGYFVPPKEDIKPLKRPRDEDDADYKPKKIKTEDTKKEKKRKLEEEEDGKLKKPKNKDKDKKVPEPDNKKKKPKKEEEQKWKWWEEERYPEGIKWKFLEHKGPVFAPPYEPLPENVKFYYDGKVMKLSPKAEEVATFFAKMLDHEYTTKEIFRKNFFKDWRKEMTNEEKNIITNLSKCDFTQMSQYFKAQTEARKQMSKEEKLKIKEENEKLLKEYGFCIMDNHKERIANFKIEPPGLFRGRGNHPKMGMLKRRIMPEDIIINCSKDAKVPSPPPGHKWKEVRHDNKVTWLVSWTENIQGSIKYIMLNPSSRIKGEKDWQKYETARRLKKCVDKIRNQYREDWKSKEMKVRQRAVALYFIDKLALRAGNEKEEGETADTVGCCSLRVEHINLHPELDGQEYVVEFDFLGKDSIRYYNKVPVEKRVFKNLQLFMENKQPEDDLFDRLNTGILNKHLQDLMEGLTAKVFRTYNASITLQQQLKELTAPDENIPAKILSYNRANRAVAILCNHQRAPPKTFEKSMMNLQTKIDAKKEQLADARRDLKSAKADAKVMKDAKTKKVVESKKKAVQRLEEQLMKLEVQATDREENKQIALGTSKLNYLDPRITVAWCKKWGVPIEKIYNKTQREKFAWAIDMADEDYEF
Description: According to the cell cytotoxicity, compounds 5, 7, 8, 16, 19, N2, N7, N8, N9, N14-N19, and N25 were also selected for primary TOP I and II activities assays at 25 and/or 50 μM (FIG. 2-4).

HCC-2998 = assay type: cell-based
U251 = assay type: cell-based; settings: U251, five dose
TOP I (Topoisomerase I) [2] = target: T1, TOP I (Topoisomerase I); assay: TOP I mediated supercoiled DNA relaxation assay; assay type: biochemical; settings: five different concentrations; TopoGEN TG2005H, TG-2000H-1
HOP-92 = assay type: cell-based; settings: HOP-92, five dose
SK-MEL-2 = assay type: cell-based; settings: SK-Mel-2, five dose
SK-MEL-5 = assay type: cell-based
SF-539 = assay type: cell-based
CAKI-1 = assay type: cell-based
UACC-257 = assay type: cell-based
[3] = target: T2, TOP II (Topoisomerase II) (Homo sapiens, UniProt P11388); assay: TOP II-catalyzed relaxation of plasmid DNA assay; assay type: biochemical
T2 construct: purchased TopoGEN TG-2000H-1
Description: We also performed TOP II-catalyzed relaxation of plasmid DNA assays (FIG. 5-7) to evaluate if compounds could inhibit TOP II. […] The IC50 value of compounds 7, N7, N8, N14, N15, N18, and N19 were about 10, 10, 1, 10, 5, 1, and 1 μM, respectively (detect by TopoGEN TG2005H, TG-2000H-1).

ACHN = assay type: cell-based
[4] = CNS cancer, 10^−5 molar, 48 hours, SRB
[5] = Non-small cell lung cancer, 10^−5 molar, 48 hours, SRB
[6] = Ovarian cancer, 10^−5 molar, 48 hours, SRB
[7] = Colon cancer, 10^−5 molar, 48 hours, SRB
[8] = Homo sapiens, HCT-116, five dose
[9] = Homo sapiens, HCC-2998, five dose
[10] = Homo sapiens, SK-MEL-5, five dose
[11] = Melanoma, 10^−5 molar, 48 hours, SRB
[12] = Homo sapiens, SF-539, five dose
[13] = Renal cancer, 10^−5 molar, 48 hours, SRB

T2 sequence (P11388 whole entry): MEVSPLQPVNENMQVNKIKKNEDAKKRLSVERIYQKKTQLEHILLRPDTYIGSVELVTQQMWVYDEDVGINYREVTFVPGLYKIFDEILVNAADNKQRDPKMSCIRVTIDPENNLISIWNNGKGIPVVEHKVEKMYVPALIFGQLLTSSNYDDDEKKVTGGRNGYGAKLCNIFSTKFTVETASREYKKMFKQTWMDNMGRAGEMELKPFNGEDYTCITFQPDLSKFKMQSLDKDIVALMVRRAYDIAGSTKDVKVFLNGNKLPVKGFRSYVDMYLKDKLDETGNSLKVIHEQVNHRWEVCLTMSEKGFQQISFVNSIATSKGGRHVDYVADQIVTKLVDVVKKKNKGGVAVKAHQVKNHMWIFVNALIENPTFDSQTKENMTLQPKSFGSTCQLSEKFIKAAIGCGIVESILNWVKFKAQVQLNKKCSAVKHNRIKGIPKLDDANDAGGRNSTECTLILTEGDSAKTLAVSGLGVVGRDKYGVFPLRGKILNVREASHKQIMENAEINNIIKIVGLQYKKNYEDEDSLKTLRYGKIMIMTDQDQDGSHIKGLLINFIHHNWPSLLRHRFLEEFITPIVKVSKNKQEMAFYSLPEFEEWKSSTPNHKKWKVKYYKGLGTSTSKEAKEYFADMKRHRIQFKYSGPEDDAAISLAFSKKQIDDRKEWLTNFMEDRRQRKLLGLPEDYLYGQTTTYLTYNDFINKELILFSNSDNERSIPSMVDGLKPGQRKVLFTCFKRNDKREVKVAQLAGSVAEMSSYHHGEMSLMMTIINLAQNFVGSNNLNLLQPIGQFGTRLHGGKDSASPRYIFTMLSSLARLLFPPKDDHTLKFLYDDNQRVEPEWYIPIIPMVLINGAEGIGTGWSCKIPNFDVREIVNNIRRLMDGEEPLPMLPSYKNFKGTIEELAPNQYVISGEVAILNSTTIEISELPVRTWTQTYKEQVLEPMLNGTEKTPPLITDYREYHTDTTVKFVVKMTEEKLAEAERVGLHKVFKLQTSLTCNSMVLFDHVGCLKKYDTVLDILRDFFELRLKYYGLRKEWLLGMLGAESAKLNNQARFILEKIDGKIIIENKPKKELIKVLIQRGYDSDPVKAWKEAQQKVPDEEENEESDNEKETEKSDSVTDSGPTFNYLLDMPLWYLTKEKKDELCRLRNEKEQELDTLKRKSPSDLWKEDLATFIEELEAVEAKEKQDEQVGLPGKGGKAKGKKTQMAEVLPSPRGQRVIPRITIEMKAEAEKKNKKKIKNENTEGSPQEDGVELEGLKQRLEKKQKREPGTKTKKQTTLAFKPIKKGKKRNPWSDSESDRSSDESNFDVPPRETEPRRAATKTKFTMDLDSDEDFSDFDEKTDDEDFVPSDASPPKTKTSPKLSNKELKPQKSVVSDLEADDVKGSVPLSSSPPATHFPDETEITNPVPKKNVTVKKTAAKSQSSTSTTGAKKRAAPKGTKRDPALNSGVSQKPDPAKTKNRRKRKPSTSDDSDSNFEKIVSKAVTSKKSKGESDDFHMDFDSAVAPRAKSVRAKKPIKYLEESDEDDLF

Q: `NCCNc1nc2ccccc2c2c(=O)c3cc(Cl)ccc3sc12` [Compound N14, 6-((2-Aminoethyl)amino)-10-chloro-12H-thiochromeno[2,3-c]quinolin-12-one] was tested. Which “Growth percent SF-268” value (SF-268; [4]) did it give?
A: The value was −67.65%.

Q: And the GI50 (SF-268; Homo sapiens, SF-268, five dose)?
A: The GI50 was 1590 nM.

Q: And the CC50 (SF-268; Homo sapiens, SF-268, five dose, read-out: LC50 (the source's name))?
A: Its CC50 is 6550 nM.

Q: What about the TGI (SF-268; SF-268, five dose) of the same molecule?
A: The TGI was 3230 nM.

Q: What about the TGI (HOP-62; HOP-62, five dose) of the same molecule?
A: The TGI was 2920 nM.

Q: What about the GI50 (HOP-62; Homo sapiens, HOP-62, five dose) of the same molecule?
A: Its GI50 is 1470 nM.

Q: What about the “Growth percent HOP-62” value (HOP-62; [5]) of the same molecule?
A: Its value is −97.40%.

Q: And the GI50 (OVCAR-4; Homo sapiens, OVCAR-4, five dose)?
A: Its GI50 is 1520 nM.

Q: What about the CC50 (OVCAR-4; Homo sapiens, OVCAR-4, five dose, read-out: LC50 (the source's name)) of the same molecule?
A: Its CC50 is 6540 nM.

Q: What about the TGI (OVCAR-4; OVCAR-4, five dose) of the same molecule?
A: Its TGI is 3150 nM.

Q: What about the “Growth percent OVCAR-4” value (OVCAR-4; [6]) of the same molecule?
A: Its value is −20.15%.

Q: What about the “Growth percent HCT-116” value (HCT-116; [7]) of the same molecule?
A: Its value is −48.19%.

Q: What about the TGI (HCT-116; HCT-116, five dose) of the same molecule?
A: The TGI was 2990 nM.

Q: And the GI50 (HCT-116; [8])?
A: Its GI50 is 1630 nM.

Q: What about the LC50 (concentration killing 50% of cells) (HCT-116; [8]) of the same molecule?
A: Its LC50 (concentration killing 50% of cells) is 5470 nM.

Q: What about the “Growth percent OVCAR-3” value (OVCAR-3) of the same molecule?
A: Its value is −84.15%.

Q: What about the “Growth percent KM12” value (KM12; [7]) of the same molecule?
A: The value was −85.99%.

Q: And the GI50 (KM12; Homo sapiens, KM12, five dose)?
A: Its GI50 is 1670 nM.

Q: And the LC50 (KM12; Homo sapiens, KM12, five dose)?
A: The LC50 was 5790 nM.

Q: And the TGI (KM12; KM12, five dose)?
A: The TGI was 3110 nM.

Q: And the GI50 (NCI-H226; Homo sapiens, NCI-H226, five dose)?
A: Its GI50 is 1360 nM.

Q: And the TGI (NCI-H226; NCI-H226, five dose)?
A: Its TGI is 2950 nM.

Q: What about the “Growth percent NCI-H226” value (NCI-H226; [5]) of the same molecule?
A: Its value is 28.55%.

Q: And the GI50 (NCI/ADR-RES; Homo sapiens, NCI/ADR-RES, five dose)?
A: The GI50 was 1880 nM.

Q: What about the TGI (NCI/ADR-RES; NCI/ADR-RES, five dose) of the same molecule?
A: Its TGI is 3670 nM.

Q: What about the “Growth percent NCI/ADR-RES” value (NCI/ADR-RES; [6]) of the same molecule?
A: The value was −42.68%.

Q: And the GI50 (IGROV1; Homo sapiens, IGROV-1, IGROV1, five dose)?
A: The GI50 was 1610 nM.

Q: And the TGI (IGROV1; IGROV1, five dose)?
A: Its TGI is 3450 nM.

Q: What about the “Growth percent IGROV1” value (IGROV1; [6]) of the same molecule?
A: The value was −77.31%.

Q: And the “Growth percent MDA-MB-231/ATCC” value (MDA-MB-231/ATCC; Breast cancer, 10^−5 molar, 48 hours, SRB)?
A: The value was −84.52%.

Q: What about the GI50 (MDA-MB-231/ATCC; Homo sapiens, MDA-MB-231/ATCC, five dose) of the same molecule?
A: Its GI50 is 1310 nM.

Q: What about the CC50 (MDA-MB-231/ATCC; Homo sapiens, MDA-MB-231/ATCC, five dose, read-out: LC50 (the source's name)) of the same molecule?
A: Its CC50 is 5350 nM.

Q: And the TGI (MDA-MB-231/ATCC; MDA-MB-231/ATCC, five dose)?
A: Its TGI is 2650 nM.

Q: What about the GI50 (SK-OV-3; Homo sapiens, SK-OV-3, five dose) of the same molecule?
A: Its GI50 is 1780 nM.

Q: What about the CC50 (SK-OV-3; Homo sapiens, SK-OV-3, five dose, read-out: LC50 (the source's name)) of the same molecule?
A: The CC50 was 6420 nM.

Q: And the “Growth percent SK-OV-3” value (SK-OV-3; [6])?
A: The value was 12.25%.

Q: And the TGI (SK-OV-3; SK-OV-3, five dose)?
A: Its TGI is 3380 nM.

Q: And the “inhibitory effect in TOP I activity assay compared with CPT” value (TOP I (Topoisomerase I) [1])?
A: The value was “more potent inhibitory effects than CPT”.

Q: And the “Growth percent HCC-2998” value (HCC-2998; [7])?
A: The value was −90.43%.

Q: What about the TGI (HCC-2998; HCC-2998, five dose) of the same molecule?
A: Its TGI is 4060 nM.

Q: What about the GI50 (HCC-2998; [9]) of the same molecule?
A: The GI50 was 2030 nM.

Q: What about the LC50 (HCC-2998; [9]) of the same molecule?
A: The LC50 was 8140 nM.

Q: And the GI50 (U251; Homo sapiens, U-251)?
A: The GI50 was 1630 nM.

Q: And the LC50 (U251; Homo sapiens, U-251)?
A: The LC50 was 5780 nM.

Q: What about the TGI (U251) of the same molecule?
A: Its TGI is 3070 nM.

Q: And the IC50 (TOP I (Topoisomerase I) [2])?
A: The IC50 was ~1000 nM.

Q: What about the TGI (HOP-92) of the same molecule?
A: The TGI was 3050 nM.

Q: And the GI50 (HOP-92; Homo sapiens)?
A: The GI50 was 1030 nM.

Q: What about the LC50 (HOP-92; Homo sapiens) of the same molecule?
A: Its LC50 is 9040 nM.

Q: What about the GI50 (SK-MEL-2; Homo sapiens) of the same molecule?
A: Its GI50 is 1980 nM.

Q: What about the LC50 (SK-MEL-2; Homo sapiens) of the same molecule?
A: The LC50 was 7870 nM.

Q: What about the TGI (SK-MEL-2) of the same molecule?
A: The TGI was 3950 nM.

Q: What about the GI50 (SK-MEL-5; [10]) of the same molecule?
A: Its GI50 is 1510 nM.

Q: And the LC50 (SK-MEL-5; [10])?
A: The LC50 was 5440 nM.

Q: What about the “Growth percent SK-MEL-5” value (SK-MEL-5; [11]) of the same molecule?
A: The value was 68.64%.

Q: What about the TGI (SK-MEL-5; SK-MEL-5, five dose) of the same molecule?
A: Its TGI is 2870 nM.

Q: What about the “Growth percent SF-539” value (SF-539; [4]) of the same molecule?
A: Its value is 2.13%.

Q: And the GI50 (SF-539; [12])?
A: The GI50 was 1570 nM.

Q: What about the LC50 (SF-539; [12]) of the same molecule?
A: Its LC50 is 5520 nM.

Q: What about the TGI (SF-539; SF-539, five dose) of the same molecule?
A: Its TGI is 2950 nM.

Q: And the TGI (CAKI-1; CAKI-1, five dose)?
A: Its TGI is 3270 nM.

Q: And the GI50 (CAKI-1; Homo sapiens, CAKI-1, five dose)?
A: The GI50 was 1560 nM.

Q: And the “Growth percent CAKI-1” value (CAKI-1; [13])?
A: The value was −75.30%.

Q: What about the GI50 (UACC-257; Homo sapiens, UACC-257, five dose) of the same molecule?
A: The GI50 was 1900 nM.

Q: What about the CC50 (UACC-257; Homo sapiens, UACC-257, five dose, read-out: LC50 (the source's name)) of the same molecule?
A: Its CC50 is 6700 nM.

Q: What about the “Growth percent UACC-257” value (UACC-257; [11]) of the same molecule?
A: Its value is −67.35%.

Q: And the TGI (UACC-257; UACC-257, five dose)?
A: The TGI was 3560 nM.

Q: And the IC50 ([3]; five different concentrations, TopoGEN TG2005H, TG-2000H-1, read-out: IC50 value, TOP II mediated supercoiled DNA relaxation)?
A: Its IC50 is ~10000 nM.

Q: What about the “inhibitory effect in TOP II relaxation assay compared with VP-16” value ([3]; primary assay at 25 and/or 50 μM) of the same molecule?
A: The value was “more potent inhibitory effects than the positive agent VP-16”.

Q: And the TGI (ACHN; ACHN, five dose)?
A: The TGI was 2760 nM.

Q: And the GI50 (ACHN; Homo sapiens, ACHN, five dose)?
A: Its GI50 is 1440 nM.

Q: What about the CC50 (ACHN; Homo sapiens, ACHN, five dose, read-out: LC50 (the source's name)) of the same molecule?
A: The CC50 was 5290 nM.

Q: What about the “Growth percent ACHN” value (ACHN; [13]) of the same molecule?
A: Its value is −92.31%.
